In ChEMBL document CHEMBL1152742, “Morpholine-based RGD-cyclopentapeptides as alphavbeta3/alphavbeta5 integrin ligands: role of configuration towards receptor binding affinity” (Bioorg Med Chem, 2009):

Tests used:
Integrin alpha-V/beta-3 = Integrin alpha-V/beta-3 (Homo sapiens, UniProt P05106+P06756)
Description: Displacement of [125I]echistatin from integrin alphaVbeta3 receptor in human placenta by microplate scintillation counter

[1] = biological target: Integrin alpha-V/beta-5 (Homo sapiens); assay: Displacement of [125I]echistatin from integrin alphaVbeta5 receptor in human placenta by microplate scintillation counter

Sequence of Integrin alpha-V/beta-3 (P05106 27-788 limits assumed): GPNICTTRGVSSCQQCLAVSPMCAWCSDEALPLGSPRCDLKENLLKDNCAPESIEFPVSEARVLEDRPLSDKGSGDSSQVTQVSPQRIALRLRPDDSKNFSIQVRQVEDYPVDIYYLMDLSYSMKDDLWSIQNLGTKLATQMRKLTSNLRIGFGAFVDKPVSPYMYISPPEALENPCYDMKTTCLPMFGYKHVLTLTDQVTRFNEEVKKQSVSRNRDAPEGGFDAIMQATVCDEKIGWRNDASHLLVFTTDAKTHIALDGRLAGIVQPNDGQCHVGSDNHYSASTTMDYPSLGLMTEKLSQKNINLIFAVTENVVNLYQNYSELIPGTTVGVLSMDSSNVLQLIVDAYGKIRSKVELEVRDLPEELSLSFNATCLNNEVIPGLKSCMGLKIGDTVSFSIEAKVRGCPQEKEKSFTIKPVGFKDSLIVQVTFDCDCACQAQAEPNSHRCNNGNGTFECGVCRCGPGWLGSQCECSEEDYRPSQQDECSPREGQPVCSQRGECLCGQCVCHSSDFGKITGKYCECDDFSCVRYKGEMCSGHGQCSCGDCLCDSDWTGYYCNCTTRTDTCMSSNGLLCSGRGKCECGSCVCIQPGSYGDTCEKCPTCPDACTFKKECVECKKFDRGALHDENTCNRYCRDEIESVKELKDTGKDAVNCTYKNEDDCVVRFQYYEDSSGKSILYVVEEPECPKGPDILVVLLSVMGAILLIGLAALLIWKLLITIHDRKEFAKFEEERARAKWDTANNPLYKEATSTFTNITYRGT
Sequence of Integrin alpha-V/beta-3 (P06756 31-889 partner limits assumed): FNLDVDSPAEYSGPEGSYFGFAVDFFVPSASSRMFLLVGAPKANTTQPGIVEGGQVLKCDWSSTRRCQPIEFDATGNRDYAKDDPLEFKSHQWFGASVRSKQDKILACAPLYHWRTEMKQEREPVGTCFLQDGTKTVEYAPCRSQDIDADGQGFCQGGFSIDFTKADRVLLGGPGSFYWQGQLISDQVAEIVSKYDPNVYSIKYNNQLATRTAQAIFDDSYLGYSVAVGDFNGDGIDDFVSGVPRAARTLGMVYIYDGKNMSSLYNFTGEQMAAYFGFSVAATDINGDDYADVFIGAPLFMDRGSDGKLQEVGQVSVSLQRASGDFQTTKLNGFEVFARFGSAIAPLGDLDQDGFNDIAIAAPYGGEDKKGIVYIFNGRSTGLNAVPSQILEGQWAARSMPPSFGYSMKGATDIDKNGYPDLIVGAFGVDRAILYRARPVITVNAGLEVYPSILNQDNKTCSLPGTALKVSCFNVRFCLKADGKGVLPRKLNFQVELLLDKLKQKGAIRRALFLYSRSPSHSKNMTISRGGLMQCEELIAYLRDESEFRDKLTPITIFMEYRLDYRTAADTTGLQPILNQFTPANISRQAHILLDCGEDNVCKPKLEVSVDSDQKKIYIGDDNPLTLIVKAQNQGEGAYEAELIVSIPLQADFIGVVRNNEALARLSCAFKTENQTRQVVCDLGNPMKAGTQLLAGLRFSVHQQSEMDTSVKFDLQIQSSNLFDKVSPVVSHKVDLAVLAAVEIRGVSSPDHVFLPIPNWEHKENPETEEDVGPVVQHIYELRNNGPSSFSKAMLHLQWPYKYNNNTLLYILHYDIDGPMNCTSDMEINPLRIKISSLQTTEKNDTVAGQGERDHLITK
Sequence of Integrin alpha-V/beta-3 (P06756 891-1048 partner limits assumed): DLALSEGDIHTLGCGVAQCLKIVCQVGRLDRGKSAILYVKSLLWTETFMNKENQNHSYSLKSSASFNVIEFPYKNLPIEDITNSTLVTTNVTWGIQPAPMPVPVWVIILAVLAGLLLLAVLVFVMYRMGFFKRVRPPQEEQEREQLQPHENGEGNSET

- IC50 (Integrin alpha-V/beta-3): 5.64 nM
- IC50 [1]: 0.9 nM
Compound: NC(N)=NCCC[C@@H]1NC(=O)CNC(=O)[C@H](CC(=O)O)N[C@@H]2CCC[C@@H]3CC[C@@H](C1=O)N3C2=O
